Read-outs that look alike come from different tables or passages of the source.
Tests used:
[1] = test system: caspase 3/7 in HCT 116, HPT1, HPT2 and HPT4 cells; experiment: Caspase 3/7 activity assay; format: cell-based, human; settings: 316 nM, three days, parental line and HPT1, HPT2, HPT4
Description: (§1) Cell proliferation assays were carried out as described using ATPlite 1step™ (Perkin Elmer, Groningen, The Netherlands). Exposure time was 72 or 120 hours as indicated in the Legends to the Figures. Percentage growth was calculated, relative to the growth of unexposed cells, and relative IC50s were fitted using a four-parameter logistics curve (XLfit 5.3, IDBS). For Figure 4A and 7 dose response curves were redrawn in Prism. To compare the inhibitory potency of compounds in proliferation assays with HCT 116 parental and tetraploid clones, pIC50 (−^10logIC50) values were compared in three independent experiments. A two-tailed Student's t-test was performed to determine whether differences in sensitivity (ΔpIC50) were statistically significant. Caspase 3/7 activity of cancer cells was measured using Caspase-Glo 3/7 Assay kit (cat no. G8093, Promega, Madison USA). Viability of T-ALL cell samples was determined using ATPlite and exposure of 72 hours as described previously.

[2] = test system: LoVo colorectal adenocarcinoma cell line; experiment: Cell proliferation assay (ATPlite), LoVo; format: cell-based, human; settings: 5 day proliferation assay
Description: as §1

[3] = test system: HCT 116, HPT1, HPT2 and HPT4 cells; experiment: Time-lapse microscopy, HCT 116 and post-tetraploid clones; format: cell-based, human; settings: 100 nM, post-tetraploid clones and parental cell line
Description: (§2) HCT 116 diploid and tetraploids stably expressed green fluorescent protein-tagged histone 2B (H2B-GFP). All other cell lines were pre-incubated with SiR-DNA (Spirochrome, Switzerland) in order to visualize DNA. Cells were cultured in Leibovitz L15 CO2-independent cell culture medium in 6-well glass bottom chamber (LabTek Corp., Australia) and synchronized by treatment with 2 mM thymidine. After 24 hours of synchronization, and 4 hours before the start of the imaging experiment, medium was replaced by medium without thymidine. […] Image Z-stacks were acquired with 3-μm intervals using a sCMOS camera (DeltaVision RT; Applied Precision, GE Healthcare, Issaquah, WA) and processed using ImageJ software (NIH, Bethesda, MD, USA). Chromosome mis-segregation phenotypes co-occurred and many combinations existed. For clarity, all the events were scored and included: more than two phenotypes, mitotic slippage, DNA bridge, micro-nuclei and multipolar spindle.

[4] = test system: MG-63 osteosarcoma cell line; settings: three day cell proliferation assay; cited from earlier work
[5] = test system: HCT 116, LoVo, A-172, DoTc2 4510, MG-63, OVCAR-3 cell lines; experiment: Time-lapse microscopy, sensitive and resistant cell lines; format: cell-based, human; settings: 100 nM
Description: The activity of the mitotic checkpoint was measured by the time between the breakdown of the nuclear envelop and the onset of anaphase (Figure 2A). Under the vehicle-treated control conditions, all sensitive cells were able to accomplish a normal mitosis in approximately 35 minutes (HCT 116, 30 min; LoVo, 41 min; A172, 36 min; Figure 2A and Supplementary Figure 1). In contrast, the three resistant cell lines spent more time in mitosis, i.e., almost one hour (MG-63, 53 min), or up to 2 and 3 hours (DoTc2 4510, 122 min; OVCAR-3, 173 min).
as §2

[6] = test system: pediatric T-ALL patient cell samples; experiment: Viability assays with T-ALL patient samples; format: cell-based, human; settings: read-out: IC50
Description: Written informed consent was obtained from the parents or legal guardians of each T-ALL patient to use excess diagnostic material for research purposes. The study was performed in accordance with the Institutional Review Board of the Erasmus Medical Center Rotterdam (The Netherlands) and in accordance with the Declaration of Helsinki. Leukemic cells were harvested from blood or bone marrow samples and were enriched to ≥ 90% purity.
as §1

[7] = test system: patient-derived colorectal carcinoma organoids; experiment: Organoids drug sensitivity and viability assay; format: cell-based, human
Description: The establishment and characterization of the human colon cancer organoids has been described. The organoids were cultured in drops of Geltrex LDEV-Free Reduced Growth Factor Basement Membrane Matrix (Gibco, cat no. A1413202) in DMEM/F12 medium (Thermo), supplemented with 1% (v/v) penicillin/streptomycin (Gibco), 1% Hepes buffer, pH7.5, 1% L-glutamine (Gibco), 1 μg/mL R-spondin (Sigma), 100 ng/mL Noggin (Peprotech), B27 vitamin A-free (Invitrogen, cat no. 12587010), 1 mM n-acetyl cysteine (Sigma), 10 mM nicotinamide (Sigma), 50 ng/mL EGF (BD Biosciences), 500 nM A83-01 (Tocris), 10 μM SB202190 (Sigma), 10 μM Y-27632 (Sigma) and 10 nM Prostaglandin E2 (Cayman). Medium was refreshed every four days and organoids were splitted by treatment with TryPLE Express (Gibco, cat. no. 12604013).
Organoids were dissociated by TryPLE Express treatment and filtered using a 40 μm nylon cell strainer (Falcon). The organoids were re-suspended in Geltrex at a density of 250,000 cells/mL and seeded in the wells of 96-well plates (Corning, cat no. 3903) at 10 μl per well. Compounds were added four days after plating and 72 hours later viability was determined using Cell-Titer Glo 3D Cell Viability Assay (Promega, Madison USA). Experiments were performed in three biological replicates and technical triplicates were averaged per experiment.

[8] = test system: A-172 glioblastoma cell line; settings: three day cell proliferation assay; cited from earlier work

In the case of `CCc1cccc(CC)c1NC(=O)c1ccn2c1CCc1cnc(Nc3ccc(N4CCN(C)CC4)cc3OC)nc1-2` [NTRC 0066-0], the “caspase 3/7 activity” value [1] is reported as “induced caspase 3/7 activity”, the IC50 [2] is reported as 0.035 µM and the time-in-mitosis [3] is reported as 20 min. For the same compound, the IC50 [4] was 0.135 µM, the time-in-mitosis ([5]; all cell lines, nuclear envelope breakdown to anaphase onset) was “approximately 20 min” and the defective anaphases ([5]; resistant cell lines) was 63–71%. The defective anaphases ([5]; sensitive cell lines) was “at least 60%”, the IC50 ([6]; all ten T-ALL patient samples, three days) was ≥ 5 µM and the IC50 ([6]; patient sample 491, three-day assay) was 5 µM. The IC50 ([6]; patient sample 1033, three-day assay) was 5.1 µM, the IC50 ([6]; patient sample 1816, three-day assay) was 8.1 µM and the IC50 ([6]; patient sample 2323, three-day assay) was 7.1 µM. For the same compound, the IC50 ([6]; patient sample 3594, three-day assay) was 4.8 µM, the IC50 ([6]; patient sample 3852, three-day assay) was 4.9 µM and the IC50 ([6]; patient sample 4023, three-day assay) was 5.4 µM. It also gave an IC50 ([6]; patient sample 4126, three-day assay) of 9.2 µM, an IC50 ([6]; patient sample 4992, three-day assay) of 4.9 µM and an IC50 ([6]; patient sample 10110, three-day assay) of 4.5 µM. For the same compound, the ΔpIC50 ([7]; All organoids, NTRC 0066-0 vs reversine) was 1.17, the pIC50 ([7]; All organoids, geometric average) was 7.59 and the ΔpIC50 ([7]; organoid p14, NTRC 0066-0 vs reversine) was 1.34. For the same compound, the pIC50 ([7]; organoid p14, three days) was 7.65, the IC50 ([7]; organoid p14, three days, read-out: IC50) was 0.0225 µM and the pIC50 ([7]; organoid p18, three days) was 7.68. For the same compound, the IC50 ([7]; organoid p18, three days, read-out: IC50) was 0.0221 µM, the ΔpIC50 ([7]; organoid p28, NTRC 0066-0 vs reversine) was 1.22 and the pIC50 ([7]; organoid p28, three days) was 7.43. The IC50 ([7]; organoid p28, three days, read-out: IC50) was 0.037 µM, the “times more potent than reversine” value ([7]; organoids) was 10 times and the IC50 ([7]; organoids from three different patients, read-out: average IC50) was 0.027 µM. For the same compound, the IC50 [8] was 0.051 µM.
